Test [1] concerns the target T1, Af SidA (Aspergillus fumigatus, UniProt E9QYP0). The test can be described thus: Fluorescence polarization binding assay, Af SidA. (In general: Polarisation of emitted light reports the rotation of a fluorescent probe.)
Test [2] concerns the target KMO (kynurenine 3-monooxygenase) (Pseudomonas fluorescens, UniProt Q84HF5). Kind of test: Fluorescence polarization binding assay, KMO.
Test [3] addresses T1, Af SidA. The test can be described thus: Fluorescence polarization displacement assay, Af SidA. Format: binding.
Test [4] deals with T1, Af SidA. Kind of test: Ornithine hydroxylation activity assay and inhibition of Af SidA. Format: biochemical.
In test [5] the target is T1, Af SidA. The test can be described thus: Fluorescence polarization displacement assay in high throughput screening. It counts as binding. Conditions: 10 μM compound, 2 μM Af SidA, 30 nM chromophore 4, 2% DMSO.

The results in this text go back to paper PMC3903666 (Analytical biochemistry, 2012).

Structures can show the parent of a compound that is named as a salt.

T1 sequence (E9QYP0 whole entry): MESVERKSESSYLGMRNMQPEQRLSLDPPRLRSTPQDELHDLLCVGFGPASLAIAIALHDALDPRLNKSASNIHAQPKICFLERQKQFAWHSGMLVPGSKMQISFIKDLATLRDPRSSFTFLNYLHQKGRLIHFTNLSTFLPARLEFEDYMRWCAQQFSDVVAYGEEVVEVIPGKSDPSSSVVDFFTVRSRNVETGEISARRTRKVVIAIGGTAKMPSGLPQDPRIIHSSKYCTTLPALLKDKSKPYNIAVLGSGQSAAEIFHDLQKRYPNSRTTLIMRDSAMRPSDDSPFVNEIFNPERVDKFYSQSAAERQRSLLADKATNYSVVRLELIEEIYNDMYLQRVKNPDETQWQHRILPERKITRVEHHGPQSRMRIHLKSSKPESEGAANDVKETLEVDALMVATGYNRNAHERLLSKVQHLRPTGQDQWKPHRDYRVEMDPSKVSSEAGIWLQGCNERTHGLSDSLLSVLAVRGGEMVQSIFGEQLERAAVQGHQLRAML
Chain of KMO (kynurenine 3-monooxygenase) (Q84HF5 whole entry): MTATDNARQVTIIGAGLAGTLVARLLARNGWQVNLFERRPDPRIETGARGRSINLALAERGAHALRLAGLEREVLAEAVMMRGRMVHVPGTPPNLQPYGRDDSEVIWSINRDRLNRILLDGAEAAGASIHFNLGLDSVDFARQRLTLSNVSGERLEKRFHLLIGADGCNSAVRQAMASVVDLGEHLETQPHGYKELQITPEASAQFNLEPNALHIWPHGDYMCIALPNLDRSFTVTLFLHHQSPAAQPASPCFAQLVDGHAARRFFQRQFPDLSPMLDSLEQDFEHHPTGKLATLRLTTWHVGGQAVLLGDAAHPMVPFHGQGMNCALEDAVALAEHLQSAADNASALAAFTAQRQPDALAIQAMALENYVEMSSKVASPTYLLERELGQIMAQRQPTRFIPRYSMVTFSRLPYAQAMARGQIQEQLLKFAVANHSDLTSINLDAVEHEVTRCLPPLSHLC

As to `CN(C)c1ccc2c(c1)Oc1cc(N(C)C)ccc1C21OC(=O)c2cc(C(=O)NCCCCCC(=O)NCCCCCCOP(=O)(O)OP(=O)(O)OCC3OC(n4cnc5c(N)ncnc54)C(O)C3O)ccc21` (centres unmarked) [Chromophore 4], the Kd (commonly a measure of binding affinity in units of concentration) at Af SidA [1] came out at 2.1 ± 0.2 µM; in test [2] it was 0.6 ± 0.05 µM. Take `CN(C)c1ccc2c(c1)Oc1cc(N(C)C)ccc1C21OC(=O)c2ccc(C(=O)NCCCCCC(=O)NCCCCCCOP(=O)(O)OP(=O)(O)OCC3OC(n4cnc5c(N)ncnc54)C(O)C3O)cc21` (centres unmarked) [Chromophore 3]: the Kd at Af SidA [1] is 9 ± 5 µM; in test [2] it was 10 ± 2 µM.

Take `COc1ccc2cc([C@H](C)C(=O)O)ccc2c1` [naproxen]: the “binding to Af SidA” value on Af SidA [3] (negative hit, Figure 9S) is on record as “did not bind”. With `C[n+]1cc2c3c(ccc2c2ccc4cc5c(cc4c21)OCO5)OCO3` [Sanguinarine, sanguinarine sulfate], half-maximal inhibition on Af SidA [4] (IC50) required 500 ± 90 µM. For the same compound, the “inhibition of Af SidA activity observed” value on Af SidA [4] (in the presence of NADPH and ornithine, inhibitor up to 1000 μM) was determined as 100%. In addition, the “decrease of the anisotropy value in the screen” value on Af SidA [5] is 20%. With `COc1ccc2cc3[n+](cc2c1OC)CCc1cc2c(cc1-3)OCO2` [berberine], the “decrease in anisotropy (specificity of binding to Af SidA)” value at Af SidA [3] (addition of up to 1 mM compound, Figure 9S) is “did not produce a decrease in anisotropy similar to sanguinarine”. The compound `NCCC[C@H](N)C(=O)O` [Ornithine, ornithine] returned a dissociation constant Kd at Af SidA [3] of 4000 ± 1000 µM. Still for that read-out and setting: for `NCCCC[C@H](N)C(=O)O` [Lysine, lysine] the value was 11000 ± 1000 µM.
